What was measured:
Type in all cases: cell-based
[1] = system: primary human mesenchymal stem cells (hMSCs); test: Induction of chondrogenesis in hMSCs (nodule imaging, Rhodamine B / Nile Red); conditions: 6 days; for EC50: concentration required to induce 50% levels of chondrogenesis vs TGF-β3, read-out: Conc (nM) of 50% TGF-β3 activity; for Emax: relative to TGF-β3 (10 ng/mL) positive control, read-out: Max. Activity as % TGF-β3 activity
Text: Representative compounds were screened using primary human mesenchymal stem cells (hMSCs) to determine their ability to induce chondrogenesis (process by which cartilage is developed).
Primary human mesenchymal stem cells (hMSCs) were purchased from Lonza (Walkersville, Md.) and expanded in Mesenchymal Stem Cell Growth Media (Lonza). Cells between passage 3 and 6 were used for the experiments.
Area of nodules in each well was normalized to the average of 3 DMSO treated wells on the same plate using Excel (Microsoft Inc.). The normalized averages (fold change over DMSO) of 2 or 3 replicate wells for each compound concentration were calculated. Due to solubility limitations of some of the compounds, curve fitting was incomplete leading to inaccurate EC50 determinations.
Using TGF-β3 as a positive control, the concentration of representative compounds required to induce 50% levels of chondrogenesis is reported. In addition, the maximum activity of each compound and the respective dose that each compound reached maximum chondrogenesis activity is reported.

[2] = system: Primary human fibroblasts derived from IPF patients (LL29 cells); test: Inhibition of the fibrotic process: αSMA staining in TGF-β1-treated LL29 fibroblasts; conditions: Fibroblast; for EC50: 96 h, LL29 cells, TGF-β1 20 ng/mL, 4 days, % αSMA-positive cells; for inhibition at 10 µM: read-out: percent inhibition at 10 μM
Text: Representative compounds were screened using primary human fibroblasts (derived from IFF patients) treated with TGF-β1 to determine their ability to inhibit the fibrotic process.
K. L., et.al., “RhoA signaling modulates cyclin D1 expression in human lung fibroblasts; implications for idiopathic pulmonary fibrosis”, Respiratory Research (2006), 7(1), 88] were obtained from American Type Culture Collection (ATCC) and expanded in F12 medium supplemented with 15% Fetal Bovine Serum and Penicillin/Streptomycin.
LL29 cells are plated at 1,500 cells/well in 80 μL/well F12 medium supplemented with 1% Fetal Bovine Serum. […] Wells treated with TGF-β1 and containing DMSO were used as controls. […] Following incubation for 4 days, SYTOX green nucleic acid stain (Life Technologies [Thermo Fisher Scientific]) was added to the wells at a final concentration of 1 μM and incubated at room temperature for 30 min.

IL-6 (THP-1 cells) = test: IL-6 inhibition in THP-1 monocytes (HTRF); conditions: Homo sapiens; for EC50: IL-6 inhibition, THP-1 cells, HTRF, 10-point dose-response starting from 10 μM
Procedure: Compound Screening: THP-1 cells were cultured in basal media with 1% FBS for 24 hours before the start of the assay. […] THP-1 cells were plated at 5000 cells/well in the 384-well plates and incubated at 37° C. for 2 h. 500 ng/mL of […] was added after 2 hours and cells were incubated for another 22 hours at 37° C. Plates were spun in a centrifuge for 1 minute at 10,000 rpm and a mixture of anti-IL6 XL665, and anti-IL6 Cryptate diluted in reconstitution buffer (Cisbio Inc.) was added to each well. Following incubation for 3 hrs at room temperature, Homogeneous Time-Resolved Fluorescence (HTRF) was measured using the Envision (Perkin Elmer) at 665 nm and […]. The ratio of fluorescence at 665 nm to 620 nm was used as a readout for IL6 quantification. All samples were processed in duplicate. Readings were normalized to DMSO treated cells and normalized activities were utilized for EC50 calculations using the dose-response log (inhibitor) vs. response-variable slope (four parameters) nonlinear regression feature available in GraphPad Prism 5.0 (or Dotmatics).

[3] = system: Wnt activity (Sp5-Luc reporter, SW480 colon carcinoma cells); test: Screening assay for Wnt activity: Sp5-Luc reporter gene assay in SW480 cells; conditions: Homo sapiens; for EC50: SW480 Sp5-Luc reporter, overnight incubation; for inhibition at 10 µM: SW480, read-out: percent inhibition at 10 μM
Text: The screening assay for Wnt activity is described as follows. Reporter cell lines can be generated by stably transducing cancer cell lines (e.g., colon cancer) or primary cells (e.g., IEC-6 intestinal cells) with a lentiviral construct that includes a Wnt-responsive promoter driving expression of the firefly luciferase gene.
SW480 colon carcinoma cells were transduced with a lentiviral vector expressing luciferase with a human Sp5 promoter consisting of a sequence of eight TCF/LEF binding sites. SW480 cells stably expressing the Sp5-Luc reporter gene and a hygromycin resistance gene were selected by treatment with 150 μg/mL of hygromycin for 7 days. These stably transduced SW480 cells were expanded in cell culture and used for all further screening activities. […] For Sp5-Luc reporter gene assays, the cells were plated at 4,000 cells/well in 384-well plates with medium containing 1% fetal bovine serum and incubated overnight at 37° C. and 5% CO2. Following incubation, 20 μl of BrightGlo luminescence reagent (Promega) was added to each well of the 384-well assay plates. The plates were placed on an orbital shaker for 2 min and then luminescence was quantified using the Envision (Perkin Elmer) plate reader. Readings were normalized to DMSO only treated cells, and normalized activities were utilized for EC50 calculations using the dose-response log (inhibitor) vs. response-variable slope (four parameters) nonlinear regression feature available in GraphPad Prism 5.0 (or Dotmatics).

SW480 colon cancer cells = test: Cell viability assay (CellTiter-Blue) in SW480 colon cancer cells; conditions: Homo sapiens; for EC50: 96 h, SW480 cell viability, four days incubation; for inhibition at 10 µM: SW480, read-out: percent inhibition at 10 μM
Procedure: Representative compounds were screened using the following assay procedure to assess the effect on cell viability as described below.
Approximately 2×10^3 SW480 colon cancer cells were seeded into each well and allowed to incubate in the presence or absence of compound for four days at 37° C./5% CO2. Eight replicates of DMSO-treated cells served as controls and cells treated with compound were performed in duplicate.
After incubation, 20 μL of CellTiter-Blue (Promega) was added to each well allowed to incubate for approximately 3 hours. This reagent was a buffered solution which contains resazurin, metabolically active cells were able to reduce rezarurin (blue) into resorufin (pink) which was highly fluorescent. This measured fluorescence was used as a readout for cell viability.

Structure (SMILES) | EC50 [1] | Emax [1] | EC50 [2] | EC50 (IL-6 (THP-1 cells)) | EC50 [3] | EC50 (SW480 colon cancer cells) | inhibition at 10 µM (SW480 colon cancer cells) | inhibition at 10 µM [3] | inhibition at 10 µM [2] | inhibition at 10 µM (IL-6 (THP-1 cells); THP-1, read-out: percentage in parentheses printed under EC50 >10)
CN(C)Cc1cncc(-c2ccc3[nH]nc(-c4cc5c(-c6cccc(F)c6)cncc5[nH]4)c3c2)c1 [Compound 13, 1-(5-(3-(4-(3-Fluorophenyl)-1H-pyrrolo[2,3-c]pyridin-2-yl)-1H-indazol-5-yl)pyridin-3-yl)-N,N-dimethylmethanamine] | 10 nM | 193% | 0.952 µM | 0.075 µM | 1.28 µM | 0.42 µM |  |  |  | 
O=C(Nc1cncc(-c2ccc3[nH]nc(-c4cc5c(-c6cccc(F)c6)cncc5[nH]4)c3c2)c1)C1CC1 [Compound 20, N-(5-(3-(4-(3-Fluorophenyl)-1H-pyrrolo[2,3-c]pyridin-2-yl)-1H-indazol-5-yl)pyridin-3-yl)cyclopropanecarboxamide] | 900 nM | 94% | 0.122 µM | 0.017 µM | 0.045 µM | 0.067 µM |  |  |  | 
Fc1cccc(-c2cncc3[nH]c(-c4n[nH]c5ccc(-c6cncc(CN7CCC(F)(F)C7)c6)cc45)cc23)c1 [Compound 26, 5-(5-((3,3-Difluoropyrrolidin-1-yl)methyl)pyridin-3-yl)-3-(4-(3-fluorophenyl)-1H-pyrrolo[2,3-c]pyridin-2-yl)-1H-indazole] | 2700 nM | 87% | 0.322 µM | 0.074 µM | 0.16 µM | 0.734 µM |  |  |  | 
Fc1cccc(-c2cncc3[nH]c(-c4n[nH]c5ccc(-c6ccccn6)cc45)cc23)c1 [Compound 28, 3-(4-(3-Fluorophenyl)-1H-pyrrolo[2,3-c]pyridin-2-yl)-5-(pyridin-2-yl)-1H-indazole] |  | 26% | 0.46 µM | 2.42 µM | 0.67 µM | 0.355 µM |  |  |  | 
Nc1cncc(-c2ccc3[nH]nc(-c4cc5c(-c6ccccc6F)cncc5[nH]4)c3c2)c1 [Compound 59, 5-(3-(4-(2-Fluorophenyl)-1H-pyrrolo[2,3-c]pyridin-2-yl)-1H-indazol-5-yl)pyridin-3-amine] | 10 nM | 58% | 2.9 µM | 4.5 µM | 0.875 µM | > 10 µM | 27.9% |  |  | 
CCNCc1cncc(-c2ccc3[nH]nc(-c4cc5c(-c6ccccc6F)cncc5[nH]4)c3c2)c1 [Compound 62, N-((5-(3-(4-(2-Fluorophenyl)-1H-pyrrolo[2,3-c]pyridin-2-yl)-1H-indazol-5-yl)pyridin-3-yl)methyl)ethanamine] | 100 nM | 86% | 9.73 µM | 7.51 µM | > 10 µM | 4.72 µM |  | 51% |  | 
c1cncc(-c2ccc3[nH]nc(-c4cc5c(-c6cccnc6)cncc5[nH]4)c3c2)c1 [Compound 88, 5-(Pyridin-3-yl)-3-(4-(pyridin-3-yl)-1H-pyrrolo[2,3-c]pyridin-2-yl)-1H-indazole] | 100 nM | 58% | > 10 µM | 0.105 µM | 0.31 µM | 0.495 µM |  |  | 0% | 
CC(C)C(=O)Nc1cncc(-c2ccc3[nH]nc(-c4cc5c(-c6cccnc6)cncc5[nH]4)c3c2)c1 [Compound 93, N-(5-(3-(4-(Pyridin-3-yl)-1H-pyrrolo[2,3-c]pyridin-2-yl)-1H-indazol-5-yl)pyridin-3-yl)isobutyramide] |  | 34% | 0.175 µM | 0.247 µM | 0.26 µM | 0.584 µM |  |  |  | 
O=C(Nc1cncc(-c2ccc3[nH]nc(-c4cc5c(-c6cccnc6)cncc5[nH]4)c3c2)c1)c1ccccc1 [Compound 95] | 10 nM | 69% | > 10 µM | 1.71 µM | > 10 µM | > 10 µM | 22.7% | 32.4% | 34.2% | 
CC(C)Nc1cncc(-c2ccc3[nH]nc(-c4cc5c(-c6cccnc6)cncc5[nH]4)c3c2)c1 [Compound 96, N-Isopropyl-5-(3-(4-(pyridin-3-yl)-1H-pyrrolo[2,3-c]pyridin-2-yl)-1H-indazol-5-yl)pyridin-3-amine] |  | 42% | 0.315 µM | 0.128 µM | 0.67 µM | 0.836 µM |  |  |  | 
c1cncc(-c2cncc3[nH]c(-c4n[nH]c5ccc(-c6cncc(CN7CCCCC7)c6)cc45)cc23)c1 [Compound 99, 5-(5-(Piperidin-1-ylmethyl)pyridin-3-yl)-3-(4-(pyridin-3-yl)-1H-pyrrolo[2,3-c]pyridin-2-yl)-1H-indazole] |  | 40% | 4.04 µM | 5.7 µM | > 10 µM | 3.37 µM |  | 31.2% |  | 
O=C(Nc1cncc(-c2ccc3[nH]nc(-c4cc5c(-c6cccnc6)cncc5[nH]4)c3c2)c1)C1CCCC1 [Compound 106, N-(5-(3-(4-(Pyridin-3-yl)-1H-pyrrolo[2,3-c]pyridin-2-yl)-1H-indazol-5-yl)pyridin-3-yl)cyclopentanecarboxamide] |  | 45% | 2.32 µM | 0.209 µM | 1.4 µM | 2.03 µM |  |  |  | 
FC1(F)CCN(Cc2cncc(-c3ccc4[nH]nc(-c5cc6c(-c7cccnc7)cncc6[nH]5)c4c3)c2)C1 [Compound 110, 5-(5-((3,3-Difluoropyrrolidin-1-yl)methyl)pyridin-3-yl)-3-(4-(pyridin-3-yl)-1H-pyrrolo[2,3-c]pyridin-2-yl)-1H-indazole] | 900 nM | 256% | 0.337 µM | 0.353 µM | 0.526 µM | 1.28 µM |  |  |  | 
c1cncc(-c2cncc3[nH]c(-c4n[nH]c5ccc(-c6cncnc6)cc45)cc23)c1 [Compound 111, 3-(4-(pyridin-3-yl)-1H-pyrrolo[2,3-c]pyridin-2-yl)-5-(pyrimidin-5-yl)-1H-indazole] | 2700 nM | 58% | > 10 µM | > 10 µM | > 10 µM | > 10 µM | 7.5% | 14.5% | 46.5% | 42.4%

From US20180228780A1, “3-(1H-PYRROLO[2,3-C]PYRIDIN-2-YL)-1H-INDAZOLES AND THERAPEUTIC USES THEREOF” (Samumed, LLC, priority 2015, published 2018)
